According to patent US8039486B2, “Indole, azaindole and related heterocyclic N-substituted piperazine derivatives” (priority 2003, dated 2011):

These compounds were tested on HIV-1 single-round infectious reporter virus (assay: Single-round infectious HIV-1 luciferase reporter virus infection of HeLa CD4 cells). Conditions: Human immunodeficiency virus 1, HeLa, 72 h, read-out: EC50 Group from Table 1.
Type: cell-based
Method: • Virus production—Human embryonic Kidney cell line, 293, was propagated in Dulbecco's Modified Eagle Medium (Invitrogen, Carlsbad, Calif.) containing 10% fetal Bovine serum (FBS, Sigma, St. Louis, Mo.). • Virus infection—Human epithelial cell line, HeLa, expressing the HIV-1 receptor CD4 was propagated in Dulbecco's Modified Eagle Medium (Invitrogen, Carlsbad, Calif.) containing 10% fetal Bovine serum (FBS, Sigma, St. Louis, Mo.) and supplemented with 0.2 mg/mL Geneticin (Invitrogen, Carlsbad, Calif.). Virus-Single-round infectious reporter virus was produced by co-transfecting human embryonic Kidney 293 cells with an HIV-1 envelope DNA expression vector and a proviral cDNA containing an envelope deletion mutation and the luciferase reporter gene inserted in place of HIV-1 nef sequences (Chen et al, Ref 41). Transfections were performed using lipofectAMINE PLUS reagent as described by the manufacturer (Invitrogen, Carlsbad, Calif.). Experiment • 1. HeLa CD4 cells were plated in 96 well plates at a cell density of 1×10^4 cells per well in 100 μl Dulbecco's Modified Eagle Medium containing 10% fetal Bovine serum and incubated overnight. • 2. Compound was added in a 2 μl dimethylsulfoxide solution, so that the final assay concentration would be ≦10 μM. • 3. 100 μl of single-round infectious reporter virus in Dulbecco's Modified Eagle Medium was then added to the plated cells and compound at an approximate multiplicity of infection (MOI) of 0.01, resulting in a final volume of 200 μl per well. • 4. Virally-infected cells were incubated at 37 degrees Celsius, in a CO2 incubator, and harvested 72 h after infection. • 5. Viral infection was monitored by measuring luciferase expression from viral DNA in the infected cells using a luciferase reporter gene assay kit, as described by the manufacturer (Roche Molecular Biochemicals, Indianapolis, Ind.). Infected cell supernatants were removed and 50 μl of lysis buffer was added per well. After 15 minutes, 50 μl of freshly-reconstituted luciferase assay reagent was added per well. Luciferase activity was then quantified by measuring luminescence using a Wallac microbeta scintillation counter. • 6. The percent inhibition for each compound was calculated by quantifying the level of luciferase expression in cells infected in the presence of each compound as a percentage of that observed for cells infected in the absence of compound and subtracting such a determined value from 100. • 7. An EC50 provides a method for comparing the antiviral potency of the compounds of this invention. The effective concentration for fifty percent inhibition (EC50) was calculated with the Microsoft Excel Xlfit curve fitting software. For each compound, curves were generated from percent inhibition calculated at 10 different concentrations by using a four paramenter logistic model (model 205). Table 1 is the key for the data in Table 2. Results

Question: How did the EC50 turn out when `COc1cnc(-n2cncn2)c2[nH]cc(C(=O)C(=O)N3CCN(c4ncnc5ccccc45)CC3)c12` [Example 47] was run?
Answer: < 1 µM

Question: With `CNC(=O)Cn1nnc(-c2ccc(OC)c3c(C(=O)C(=O)N4CCN(c5nccc6ccccc56)CC4)c[nH]c23)n1` [Example 28] as the compound, how does the EC50 read?
Answer: < 1 µM

Question: For `O=C(C(=O)N1CCN(c2ccc3ccccc3n2)CC1)c1c[nH]c2c(-n3ccnn3)ncc(F)c12` [Example 91], which EC50 is on record?
Answer: < 1 µM

Question: With `COc1cnc(-n2cnc(C#N)n2)c2[nH]cc(C(=O)C(=O)N3CCN(c4ncnc5ccccc45)CC3)c12` [Example 69] as the compound, how does the EC50 read?
Answer: < 1 µM

Question: How did the EC50 turn out when `COc1ccc(-c2noc(C)n2)c2[nH]cc(C(=O)C(=O)N3CCN(c4nccc5ccccc45)CC3)c12` [Example 20] was run?
Answer: < 1 µM

Question: Which EC50 does the source give for `O=C(C(=O)N1CCN(c2ncnc3ccccc23)CC1)c1c[nH]c2c(Br)ncc(F)c12` [Example 73] here?
Answer: < 1 µM

Question: For `COc1ncc(-c2ncc(F)c3c(C(=O)C(=O)N4CCN(c5ncnc6ccccc56)CC4)c[nH]c23)cn1` [Example 82], which EC50 is on record?
Answer: < 1 µM

Question: For `Cc1cc(N2CCN(C(=O)C(=O)c3c[nH]c4c(-c5ncon5)ccc(F)c34)CC2)c2ccccc2n1` [Example 40], which EC50 is on record?
Answer: < 1 µM

Question: For `COc1ccc(-c2nnn(CC(=O)O)n2)c2[nH]cc(C(=O)C(=O)N3CCN(c4nccc5ccccc45)CC3)c12` [Example 27], which EC50 is on record?
Answer: < 1 µM

Question: With `COc1ccc(-c2nc(C)n[nH]2)c2[nH]cc(C(=O)C(=O)N3CCN(c4nccc5ccccc45)CC3)c12` [Example 11] as the compound, how does the EC50 read?
Answer: < 1 µM

Question: For `COc1cnc(-n2cnc(C)n2)c2[nH]cc(C(=O)C(=O)N3CCN(c4nc(Cl)cc5ccccc45)CC3)c12` [Example 66], which EC50 is on record?
Answer: < 1 µM

Question: `COc1cnc(-n2ccnn2)c2[nH]cc(C(=O)C(=O)N3CCN(c4ncnc5ccccc45)CC3)c12` [Example 52] was tested. Which EC50 did it give?
Answer: < 1 µM

Question: How did the EC50 turn out when `COc1ccc(-c2nc(-c3cccnc3)n[nH]2)c2[nH]cc(C(=O)C(=O)N3CCN(c4nccc5ccccc45)CC3)c12` [Example 22] was run?
Answer: < 1 µM

Question: For `O=C(C(=O)N1CCN(c2nccc3ccoc23)CC1)c1c[nH]c2c(-c3ncon3)ccc(F)c12` [Example 2], which EC50 is on record?
Answer: < 1 µM

Question: `COc1cc(N2CCN(C(=O)C(=O)c3c[nH]c4c(-n5cncn5)ncc(OC)c34)CC2)c2cc(C)ccc2n1` [Example 86] was tested. Which EC50 did it give?
Answer: < 1 µM

Question: How did the EC50 turn out when `COc1cnc(-n2ccnn2)c2[nH]cc(C(=O)C(=O)N3CCN(c4nc(Cl)cc5ccccc45)CC3)c12` [Example 67] was run?
Answer: < 1 µM

Question: How did the EC50 turn out when `COc1cnc(-n2ccnn2)c2[nH]cc(C(=O)C(=O)N3CCN(c4nc(C)nc5ccccc45)CC3)c12` [Example 61] was run?
Answer: < 1 µM

Question: How did the EC50 turn out when `O=C(C(=O)N1CCN(c2ncnc3ccccc23)CC1)c1c[nH]c2c(-c3cccnc3)ncc(F)c12` [Example 83] was run?
Answer: < 1 µM

Question: For `Cc1nc(N2CCN(C(=O)C(=O)c3c[nH]c4c(-n5ccnn5)ncc(F)c34)CC2)c2ccccc2n1` [Example 59], which EC50 is on record?
Answer: < 1 µM

Question: For `COc1ccc(-c2nn[nH]n2)c2[nH]cc(C(=O)C(=O)N3CCN(c4nccc5ccccc45)CC3)c12` [Example 15], which EC50 is on record?
Answer: < 1 µM

Question: Which EC50 does the source give for `COc1cnc(C#N)c2[nH]cc(C(=O)C(=O)N3CCN(c4nccc5ccccc45)CC3)c12` [Example 7] here?
Answer: < 1 µM

Question: How did the EC50 turn out when `COc1ccc(-c2nnn(CC(N)=O)n2)c2[nH]cc(C(=O)C(=O)N3CCN(c4nccc5ccccc45)CC3)c12` [Example 29] was run?
Answer: < 1 µM

Question: For `O=C(C(=O)N1CCN(c2nccc3ccccc23)CC1)c1c[nH]c2c(-c3ncon3)ccc(F)c12` [Example 1], which EC50 is on record?
Answer: < 1 µM

Question: `O=C(C(=O)N1CCN(c2nccc3ccccc23)CC1)c1c[nH]c2c(Cl)ccnc12` [Example 37] was tested. Which EC50 did it give?
Answer: < 1 µM

Question: How did the EC50 turn out when `COc1cnc(-n2cnc(C)n2)c2[nH]cc(C(=O)C(=O)N3CCN(c4nncc5ccccc45)CC3)c12` [Example 55] was run?
Answer: < 1 µM

Question: How did the EC50 turn out when `COc1ccc(C(=N)NC2CC2)c2[nH]cc(C(=O)C(=O)N3CCN(c4nccc5ccccc45)CC3)c12` [Example 18] was run?
Answer: < 1 µM

Question: With `COc1cnc(-c2cc[nH]n2)c2[nH]cc(C(=O)C(=O)N3CCN(c4ncnc5ccccc45)CC3)c12` [Example 96] as the compound, how does the EC50 read?
Answer: < 1 µM

Question: With `O=C(C(=O)N1CCN(c2ncnc3ccccc23)CC1)c1c[nH]c2c(-n3ccnn3)ncc(F)c12` [Example 48] as the compound, how does the EC50 read?
Answer: < 1 µM

Question: Which EC50 does the source give for `COc1ccc(-c2nc(CC(=O)O)n[nH]2)c2[nH]cc(C(=O)C(=O)N3CCN(c4nccc5ccccc45)CC3)c12` [Example 33] here?
Answer: < 1 µM
